{"source": "paper PMC5107945", "about": "“Abscinazole-E3M, a practical inhibitor of abscisic acid 8′-hydroxylase for improving drought tolerance” (Scientific Reports, 2016)", "key": {"[1]": {"test_system": "Arabidopsis seed germination", "experiment": "Arabidopsis seed germination assay", "format": "in vivo, Arabidopsis (Columbia accession)", "method": "Figure 3 Effects of (−)-Abz-T compounds on Arabidopsis seed germination compared with that of (−)-Abz-E2B. Seed germination rates in the presence of 0.1 μM ABA and the indicated concentrations of azole inhibitors at a time when the germination rate of plants treated only with ABA was 80% (n = 3; error bars represent s.d.). Compound 6 is also referred to as Abz-E3M.\nFor the Arabidopsis seed germination assay, 25 to 40 seeds (Columbia accession) were sterilised successively by soaking in 70% EtOH for 30 min and reagent-grade EtOH for 1 min. They were then soaked in distilled water and incubated in the darkness at 5 °C for 3 d. The stratified seeds were then soaked in 100 μL of a test medium liquid agar in 96-well plates and allowed to germinate under continuous illumination at 22 or 30 °C. In these assays, we used the classic definition of radical emergence for seed germination. All of the assays were conducted at least three times."}, "[2]": {"test_system": "MAPKKK18 promoter GUS reporter", "experiment": "ABA-responsive MAPKKK18::GUS reporter analysis", "format": "in vivo, Arabidopsis", "details": "co-treatment with ABA; 5 or 25 μM, 6 h; Fig. S6", "method": "MAPKKK18::GUS reporter-containing transgenic Arabidopsis[32] were grown for 6 d on agar plates containing 1/2 MS and 0.5% sucrose. Seedlings were incubated in 1/2 MS solutions containing 0.5% sucrose with chemicals for 6 h. GUS activities were detected using a reaction buffer containing 50 mM sodium phosphate buffer, 2.5 mM potassium ferrocyanide, 2.5 mM potassium ferricyanide and 1 mM X-gluc. The GUS enzyme reaction was performed at 30 °C for ~12 h. The reaction was stopped by adding 70% EtOH. Tissue-specific GUS staining was observed by microscope after bleaching the chlorophyll pigment.\nSupplementary Figure 6. (−)-Abz-E3M enhanced the ABA-inducible MAPKKK18 expression level. Six-day-old seedlings of MAPKKK18::GUS reporter-containing transgenic plants were incubated in solutions containing either 5 or 25 µM of (−)-Abz-E3M"}, "[3]": {"test_system": "Arabidopsis stomata / leaf surface temperature", "experiment": "Thermal imaging and stomatal aperture in Arabidopsis", "format": "in vivo", "method": "The effects of (-)-Abz-[…] were also determined relative to stomatal apertures. Arabidopsis grown in soil pots underwent moderate drought stress under the optimal growth conditions of 22 °C and 60% relative humidity. Under these growth conditions, the leaf surface temperature of the mock-treated controls was 19.5 °C, which was lower than the surrounding atmospheric temperature because of transpirational water loss (Fig. 6a,b)[30]. […] Finally, we examined the effects of (-)-Abz-[…] on drought tolerance under more practical conditions. Three-week-old Arabidopsis were sprayed with an aqueous solution containing 50 μM (-)-Abz-[…]. Water was not supplied for 12 days, and then the plants were rehydrated. […] We also tested the effects of (-)-Abz-[…] on a monocot crop, maize, to evaluate whether (-)-Abz-[…] affected stomatal movement and enhanced ABA response across plant species. […] Thus, the effects of (-)-Abz-[…] were not restricted to the model plant Arabidopsis. Figure 6 Effects of (-)-Abz-[…] on Arabidopsis drought tolerance. (a,b) Three-week-old plants were treated with 50 μM of (-)-Abz-[…] and incubated overnight at 22 °C with 60% relative humidity. Thermal images of plants were obtained using a thermal imaging camera ([…], Nippon Avionics Co., Ltd.), and the average temperatures on leaf surfaces were determined with NS9200 software (n = 5, error bars represent s.d.). Representative images are shown in (a). (c) Stomatal apertures after the application of 50 μM (-)-Abz-[…]. After an overnight incubation, plants were placed at 22 °C with ~90% relative humidity for 1 h. Stomatal images were obtained using Suzuki's universal micro-printing method. […] (d) Effects of (-)-Abz-[…] on endogenous ABA levels. Four-week old plants grown in soil pots were treated with 50 μM (-)-Abz-[…], and leaves were harvested after an overnight incubation. Values are means with s.d. (n = 6). (e) Four-week-old plants were subjected to drought stress by withholding water. […]"}}, "data": [{"substance": "abscinazole-E3M [(−)-6]", "values": [{"measurement": "Effect on Arabidopsis seed germination under high temperature conditions", "setting": "[1]; 30 °C, thermoinhibition, Fig. S3", "result": "inhibited Arabidopsis seed germination"}, {"measurement": "Potency in enhancing ABA's effects on seed germination relative to (−)-Abz-E2B", "setting": "[1]; co-treatment with ABA (0.1 μM)", "result": 10, "unit": "fold"}, {"measurement": "Effect on ABA's inhibition of Arabidopsis seed germination", "setting": "[1]; in the presence of 0.1 μM ABA, Fig. 3", "result": "enhanced the effects of ABA"}, {"measurement": "ABA-inducible GUS staining (MAPKKK18::GUS)", "setting": "[2]", "result": "enhanced the ABA-inducible GUS staining"}, {"measurement": "Transpirational water loss", "setting": "[3]; 50 μM spray, overnight", "result": "reduced the water loss"}, {"measurement": "Leaf surface temperature", "setting": "[3]; 50 μM spray, overnight, 22 °C, 60% relative humidity", "result": "increased leaf temperatures"}, {"measurement": "Stomatal aperture", "setting": "[3]; 50 μM, overnight then ~90% relative humidity 1 h", "result": "led to stomatal closure"}]}]}
